Results: patent US11993582B2, “Crystalline forms of a LTA4H inhibitor” (Novartis AG, priority 2018, dated 2024)
≈ marks a conversion by molar mass, not a printed value.

What was measured:
Assay type in all cases: physicochemical
[1] = Competitive slurry experiments at different water activities
Method: Competitive slurry experiments at different water activities at 25° C. and at 50° C. were performed. Competitive slurries of a (1:1) physical mixture of Modifications HB and B at different water activities were also performed.

[2] = Hygroscopicity by DVS
Description: Crystalline form HB is a hydrated form of (S)-3-amino-4-(5-(4-((5-chloro-3-fluoropyridin-2-yl)oxy)phenyl)-2H-tetrazol-2-yl)butanoic acid.

[3] = Stability in solvent: equilibration of Form HB with solvent, residue analysed by XRPD; conditions: slurry experiments
Method: Equilibrations with solvent were carried out to investigate the relative stability of form HB in solvent. 50 mg of Form HB is equilibrated with 1 mL solvent for 24 h (or 7 days, or 28 days) in a water bath at 25° C. or for 7 days at 50° C. The solutions are filtered and dried for 10 minutes in air. The resulting solid is analyzed by XRPD.
Various solvent were investigated: acetone, acetonitrile, dichloromethane, dioxane, ethanol, heptane, methanol, THF, acetone/water mixtures from 10/90 to 90/10, acetonitrile/water mixtures from 10/90 to 90/10, dioxane/water mixtures from 10/90 to 90/10 and ethanol/water mixture from 10/90 to 90/10, tetrahydrofuran/water (50/50) and 1-propanol/water (70/30).

[4] = Solid state stability in bulk (HPLC degradation products, XRPD)
Method: The chemical and physical stability of form B and form HB was investigated, exposing the individual forms to high humidity at temperatures ranging from 25-80° C.
The degradation products were analyzed by HPLC and the sample was analyzed by XPRD to detect any changes to the solid state.

[5] = Solubility in aqueous buffers and bio-relevant media

Structure (SMILES): N[C@@H](CC(=O)O)Cn1nnc(-c2ccc(Oc3ncc(Cl)cc3F)cc2)n1 (mixture of isomers) [Physical mixture of HB and B (1:1), (S)-3-amino-4-(5-(4-((5-chloro-3-fluoropyridin-2-yl)oxy)phenyl)-2H-tetrazol-2-yl)butanoic acid]
- Solid form after competitive slurry ([1]; 25 Degrees Celsius, Acetonitrile, aw 0.00, 2 days): Form B
- Solid form after competitive slurry ([1]; 25 Degrees Celsius, Acetonitrile, aw 0.00, 5 days): Form B
- Solid form after competitive slurry ([1]; 25 Degrees Celsius, Acetonitrile/water (83:17), aw 0.93, 2 days): Forms HB + B
- Solid form after competitive slurry ([1]; 25 Degrees Celsius, Acetonitrile/water (83:17), aw 0.93, 5 days): Forms HB + B
- Solid form after competitive slurry ([1]; 25 Degrees Celsius, Acetonitrile/water (88:12), aw 0.90, 2 days): Forms HB + B
- Solid form after competitive slurry ([1]; 25 Degrees Celsius, Acetonitrile/water (88:12), aw 0.90, 5 days): Forms HB + B
- Solid form after competitive slurry ([1]; 25 Degrees Celsius, Acetonitrile/water (92:8), aw 0.82, 2 days): Forms HB + B
- Solid form after competitive slurry ([1]; 25 Degrees Celsius, Acetonitrile/water (92:8), aw 0.82, 5 days): Forms HB + B
- Solid form after competitive slurry ([1]; 25 Degrees Celsius, Acetonitrile/water (97:3), aw 0.50, 2 days): Forms HB + B
- Solid form after competitive slurry ([1]; 25 Degrees Celsius, Acetonitrile/water (97:3), aw 0.50, 5 days): Form B
- Solid form after competitive slurry ([1]; 25 Degrees Celsius, Acetonitrile/water (98:2), aw 0.44, 2 days): Form B
- Solid form after competitive slurry ([1]; 25 Degrees Celsius, Acetonitrile/water (98:2), aw 0.44, 5 days): Form B
- Solid form after competitive slurry ([1]; 25 Degrees Celsius, Methanol, aw 0.00, 2 days): Form B
- Solid form after competitive slurry ([1]; 25 Degrees Celsius, Methanol, aw 0.00, 5 days): Form B
- Solid form after competitive slurry ([1]; 25 Degrees Celsius, Methanol/water (22:78), aw 0.90, 2 days): Forms HB + B
- Solid form after competitive slurry ([1]; 25 Degrees Celsius, Methanol/water (22:78), aw 0.90, 5 days): Forms HB + B
- Solid form after competitive slurry ([1]; 25 Degrees Celsius, Methanol/water (57:43), aw 0.70, 2 days): Forms HB + B
- Solid form after competitive slurry ([1]; 25 Degrees Celsius, Methanol/water (57:43), aw 0.70, 5 days): Forms HB + B
- Solid form after competitive slurry ([1]; 25 Degrees Celsius, Methanol/water (77:23), aw 0.50, 2 days): Form B
- Solid form after competitive slurry ([1]; 25 Degrees Celsius, Methanol/water (77:23), aw 0.50, 5 days): Form B
- Solid form after competitive slurry ([1]; 25 Degrees Celsius, Methanol/water (89:11), aw 0.30, 2 days): Form B
- Solid form after competitive slurry ([1]; 25 Degrees Celsius, Methanol/water (89:11), aw 0.30, 5 days): Form B
- Solid form after competitive slurry ([1]; 25 Degrees Celsius, Methanol/water (97:3), aw 0.11, 2 days): Form B
- Solid form after competitive slurry ([1]; 25 Degrees Celsius, Methanol/water (97:3), aw 0.11, 5 days): Form B
- Solid form after competitive slurry ([1]; 25 Degrees Celsius, Water, aw 1.00, 2 days): Forms HB + B
- Solid form after competitive slurry ([1]; 25 Degrees Celsius, Water, aw 1.00, 5 days): Forms HB + B
- Water activity (aw) at which the mixture converted into pure Form B ([1]; 25° C.): ≤ 0.5
- Solid form after competitive slurry ([1]; 25° C., water activities above aw 0.5): remained unchanged
- Solid form after competitive slurry ([1]; 50 degrees, Acetonitrile, aw 0.00, 2 days): Form B
- Solid form after competitive slurry ([1]; 50 degrees, Acetonitrile, aw 0.00, 5 days): Form B
- Solid form after competitive slurry ([1]; 50 degrees, Acetonitrile/water (83:17), aw 0.90, 2 days): Forms B + HB
- Solid form after competitive slurry ([1]; 50 degrees, Acetonitrile/water (83:17), aw 0.90, 5 days): Form B
- Solid form after competitive slurry ([1]; 50 degrees, Acetonitrile/water (88:12), aw 0.86, 2 days): Form B
- Solid form after competitive slurry ([1]; 50 degrees, Acetonitrile/water (88:12), aw 0.86, 5 days): Form B
- Solid form after competitive slurry ([1]; 50 degrees, Acetonitrile/water (92:8), aw 0.77, 2 days): Form B
- Solid form after competitive slurry ([1]; 50 degrees, Acetonitrile/water (92:8), aw 0.77, 5 days): Form B
- Solid form after competitive slurry ([1]; 50 degrees, Acetonitrile/water (97:3), aw 0.46, 2 days): Form B
- Solid form after competitive slurry ([1]; 50 degrees, Acetonitrile/water (97:3), aw 0.46, 5 days): Form B
- Solid form after competitive slurry ([1]; 50 degrees, Acetonitrile/water (98:2), aw 0.34, 2 days): Form B
- Solid form after competitive slurry ([1]; 50 degrees, Acetonitrile/water (98:2), aw 0.34, 5 days): Form B
- Solid form after competitive slurry ([1]; 50 degrees, Methanol, aw 0.00, 2 days): Form B
- Solid form after competitive slurry ([1]; 50 degrees, Methanol, aw 0.00, 5 days): Form B
- Solid form after competitive slurry ([1]; 50 degrees, Methanol/water (22:78), aw 0.90, 2 days): Forms HB + B
- Solid form after competitive slurry ([1]; 50 degrees, Methanol/water (22:78), aw 0.90, 5 days): Forms B + HB
- Solid form after competitive slurry ([1]; 50 degrees, Methanol/water (57:43), aw 0.71, 2 days): Form B
- Solid form after competitive slurry ([1]; 50 degrees, Methanol/water (57:43), aw 0.71, 5 days): Form B
- Solid form after competitive slurry ([1]; 50 degrees, Methanol/water (77:23), aw 0.51, 2 days): Form B
- Solid form after competitive slurry ([1]; 50 degrees, Methanol/water (77:23), aw 0.51, 5 days): Form B
- Solid form after competitive slurry ([1]; 50 degrees, Methanol/water (89:11), aw 0.31, 2 days): Form B
- Solid form after competitive slurry ([1]; 50 degrees, Methanol/water (89:11), aw 0.31, 5 days): Form B
- Solid form after competitive slurry ([1]; 50 degrees, Methanol/water (97:3), aw 0.21, 2 days): Form B
- Solid form after competitive slurry ([1]; 50 degrees, Methanol/water (97:3), aw 0.21, 5 days): Form B
- Solid form after competitive slurry ([1]; 50 degrees, Water, aw 1.00, 2 days): Forms B + HB
- Solid form after competitive slurry ([1]; 50 degrees, Water, aw 1.00, 5 days): Forms HB + B
- Maximum water activity (aw) for transformation to Form B ([1]; 50° C.): ≤ 0.7

Structure (SMILES): N[C@@H](CC(=O)O)Cn1nnc(-c2ccc(Oc3ncc(Cl)cc3F)cc2)n1 [Form B, (S)-3-amino-4-(5-(4-((5-chloro-3-fluoropyridin-2-yl)oxy)phenyl)-2H-tetrazol-2-yl)butanoic acid]
- Maximum water uptake ([2]; 25° C. at 90% RH by DVS): less than 0.7%
- Hygroscopicity ([2]; by DVS): slightly hygroscopic
- Form conversion through slurry [3]: does not transform into other form
- Hydrate formation ([4]; 1 week at 40° C./90% RH): no hydrate formation was detected
- Stability in bulk ([4]; 1 week at 40° C./90% RH): stable
- Chemical and physical stability in bulk ([4]; test conditions 1-5: 1 week, tight or open container, room temperature to 80° C., up to 92% RH): displayed good stability and did not convert at all
- solubility ([5]; FaSSIF-V2 (pH=6.6)): 70 µg/mL (≈ 178 µM)
- solubility ([5]; FeSSIF-V2 (pH=5.9)): 180 µg/mL (≈ 458 µM)
- solubility ([5]; aqueous buffers, aqueous buffer, pH values of 4 to 7): 50 µg/mL (≈ 127 µM)
